Drawing on PubChem BioAssay AID1259407 (Chemical Carcinogenesis Research Information System (CCRIS), 2018), this text covers mutagenic call for ten compounds.

The structures appear in SMILES notation. Activity calls are given as the source filed them. The rule behind the calls is not given here.

The test system of the data set is CCRIS mutagenicity, Ames/micronucleus/aberration tests. The data set is described as follows: CCRIS mutagenicity studies.
The mark [1] stands for this setting: Test System: AMES SALMONELLA TYPHIMURIUM, Strain/Indicator: TA100, Metabolic Activation: NONE, Method: STANDARD PLATE.
Setting [2] is: Test System: AMES SALMONELLA TYPHIMURIUM, Strain/Indicator: TA98, Metabolic Activation: NONE, Method: PREINCUBATION
[3] abbreviates: Test System: AMES SALMONELLA TYPHIMURIUM, Strain/Indicator: TA98, Metabolic Activation: NONE, Method: STANDARD PLATE.
Where [4] appears, read: Test System: AMES SALMONELLA TYPHIMURIUM, Strain/Indicator: TA1535, Metabolic Activation: NONE, Method: STANDARD PLATE.
The mark [5] stands for this setting: Test System: AMES SALMONELLA TYPHIMURIUM, Strain/Indicator: TA100, Metabolic Activation: NONE, Method: PREINCUBATION
Where [6] appears, read: Test System: AMES SALMONELLA TYPHIMURIUM, Strain/Indicator: TA1535, Metabolic Activation: NONE, Method: PREINCUBATION
Setting [7] is: Test System: AMES SALMONELLA TYPHIMURIUM, Strain/Indicator: TA98, Metabolic Activation: RAT, LIVER, S-9, AROCLOR 1254, Method: PREINCUBATION
Setting [8] is: Test System: AMES SALMONELLA TYPHIMURIUM, Strain/Indicator: TA100, Metabolic Activation: RAT, LIVER, S-9, AROCLOR 1254, Method: PREINCUBATION

`O=c1c2ccc(OCC3CO3)cc2sn1CC1CO1` (stereo unspecified): under setting [1], the mutagenic call is “active; positive”.

As to `Cc1cccc2c([N+](=O)[O-])cccc12`, the mutagenic call under setting [2] is “active; positive”.

Take `ONc1ccc2ccccc2c1`: the mutagenic call is “active; positive” under setting [3]; “active; positive” (Test System: AMES SALMONELLA TYPHIMURIUM, Strain/Indicator: TA98, Metabolic Activation: S-9, Method: STANDARD PLATE); “active; positive” under setting [1]; “active; positive” (Test System: AMES SALMONELLA TYPHIMURIUM, Strain/Indicator: TA100, Metabolic Activation: S-9, Method: STANDARD PLATE); “active; positive” under setting [4]; “active; positive” (Test System: AMES SALMONELLA TYPHIMURIUM, Strain/Indicator: TA1538, Metabolic Activation: NONE, Method: STANDARD PLATE).

For `COc1ccc2[nH]c3c(C)cc(N)c(C)c3c2c1`, the mutagenic call is “inactive; negative” under setting [3]; “active; positive” (Test System: AMES SALMONELLA TYPHIMURIUM, Strain/Indicator: TA98, Metabolic Activation: RAT LIVER S-9, AROCLOR 1254, Method: STANDARD PLATE); “inactive; negative” under setting [1]; “inactive; negative” (Test System: AMES SALMONELLA TYPHIMURIUM, Strain/Indicator: TA100, Metabolic Activation: RAT LIVER S-9, AROCLOR 1254, Method: STANDARD PLATE).

As for `O[C@@H]1C=CC=C[C@H]1O`, the mutagenic call (Test System: AMES SALMONELLA TYPHIMURIUM, Strain/Indicator: TA97, Metabolic Activation: NONE, Method: STANDARD PLATE) is “inactive; negative”; the mutagenic call under setting [3] is “inactive; negative”; the mutagenic call (Test System: AMES SALMONELLA TYPHIMURIUM, Strain/Indicator: TA98, Metabolic Activation: RAT, LIVER, S-9, AROCLOR 1254, Method: STANDARD PLATE) is “inactive; negative”; the mutagenic call under setting [1] was “inactive; negative”; the mutagenic call under setting [4] is “inactive; negative”; the mutagenic call (Test System: AMES SALMONELLA TYPHIMURIUM, Strain/Indicator: TA1535, Metabolic Activation: RAT, LIVER, S-9, AROCLOR 1254, Method: STANDARD PLATE) is “active; positive”. Besides, the mutagenic call (Test System: CHINESE HAMSTER V-79, Strain/Indicator: V-79/6-THIOGUANINE, Metabolic Activation: NONE) is “inactive; negative”.

With `O[C@@H]1[C@H]2O[C@H]2c2cc3c(ccc4ccccc43)cc2[C@H]1O`, where the note is “Test System: CHINESE HAMSTER V-79, Strain/Indicator: V-79/8-AZAGUANINE, Metabolic Activation: NONE, Method: STANDARD PLATE”, the mutagenic call was “active; positive”.

Consider `S=c1[nH]c2ccccc2[nH]1`, for which the mutagenic call (Test System: AMES SALMONELLA TYPHIMURIUM, Strain/Indicator: TA97, Metabolic Activation: HAMSTER, LIVER, S-9, AROCLOR 1254 (10%), Method: PREINCUBATION) is “inactive; negative”; the mutagenic call (Test System: AMES SALMONELLA TYPHIMURIUM, Strain/Indicator: TA97, Metabolic Activation: HAMSTER, LIVER, S-9, AROCLOR 1254 (30%), Method: PREINCUBATION) is “inactive; negative”; the mutagenic call (Test System: AMES SALMONELLA TYPHIMURIUM, Strain/Indicator: TA97, Metabolic Activation: NONE, Method: PREINCUBATION) was “inactive; negative”; the mutagenic call (Test System: AMES SALMONELLA TYPHIMURIUM, Strain/Indicator: TA97, Metabolic Activation: RAT, LIVER, S-9, AROCLOR 1254 (10%), Method: PREINCUBATION) was “inactive; negative”; the mutagenic call (Test System: AMES SALMONELLA TYPHIMURIUM, Strain/Indicator: TA97, Metabolic Activation: RAT, LIVER, S-9, AROCLOR 1254 (30%), Method: PREINCUBATION) is “inactive; negative”; the mutagenic call (Test System: AMES SALMONELLA TYPHIMURIUM, Strain/Indicator: TA98, Metabolic Activation: HAMSTER, LIVER, S-9, AROCLOR 1254 (10%), Method: PREINCUBATION) was “inactive; negative”. The mutagenic call is “inactive; negative” (Test System: AMES SALMONELLA TYPHIMURIUM, Strain/Indicator: TA98, Metabolic Activation: HAMSTER, LIVER, S-9, AROCLOR 1254 (30%), Method: PREINCUBATION); “inactive; negative” under setting [2]; “inactive; negative” (Test System: AMES SALMONELLA TYPHIMURIUM, Strain/Indicator: TA98, Metabolic Activation: RAT, LIVER, S-9, AROCLOR 1254 (10%), Method: PREINCUBATION); “inactive; negative” (Test System: AMES SALMONELLA TYPHIMURIUM, Strain/Indicator: TA98, Metabolic Activation: RAT, LIVER, S-9, AROCLOR 1254 (30%), Method: PREINCUBATION); “inactive; negative” (Test System: AMES SALMONELLA TYPHIMURIUM, Strain/Indicator: TA100, Metabolic Activation: HAMSTER, LIVER, S-9, AROCLOR 1254 (10%), Method: PREINCUBATION); “inactive; negative” (Test System: AMES SALMONELLA TYPHIMURIUM, Strain/Indicator: TA100, Metabolic Activation: HAMSTER, LIVER, S-9, AROCLOR 1254 (30%), Method: PREINCUBATION). The mutagenic call under setting [5] is “inactive; negative”; the mutagenic call (Test System: AMES SALMONELLA TYPHIMURIUM, Strain/Indicator: TA100, Metabolic Activation: RAT, LIVER, S-9, AROCLOR 1254 (10%), Method: PREINCUBATION) is “inactive; negative”; the mutagenic call (Test System: AMES SALMONELLA TYPHIMURIUM, Strain/Indicator: TA100, Metabolic Activation: RAT, LIVER, S-9, AROCLOR 1254 (30%), Method: PREINCUBATION) was “inactive; negative”; the mutagenic call (Test System: AMES SALMONELLA TYPHIMURIUM, Strain/Indicator: TA1535, Metabolic Activation: HAMSTER, LIVER, S-9, AROCLOR 1254 (10 OR 30%), Method: PREINCUBATION) is “inactive; negative”; the mutagenic call under setting [6] is “inactive; negative”; the mutagenic call (Test System: AMES SALMONELLA TYPHIMURIUM, Strain/Indicator: TA1535, Metabolic Activation: RAT, LIVER, S-9, AROCLOR 1254 (10 OR 30%), Method: PREINCUBATION) was “inactive; negative”.

In the case of `NC(=O)CCCCC(N)=O`, the mutagenic call is, setting by setting: (Test System: AMES SALMONELLA TYPHIMURIUM, Strain/Indicator: TA98, Metabolic Activation: HAMSTER, LIVER, S-9, AROCLOR 1254, Method: PREINCUBATION) “inactive; negative”; under setting [2], “inactive; negative”; under setting [7], “inactive; negative”; (Test System: AMES SALMONELLA TYPHIMURIUM, Strain/Indicator: TA100, Metabolic Activation: HAMSTER, LIVER, S-9, AROCLOR 1254, Method: PREINCUBATION) “inactive; negative”; under setting [5], “inactive; negative”; under setting [8], “inactive; negative”. Further, the mutagenic call by setting is: (Test System: AMES SALMONELLA TYPHIMURIUM, Strain/Indicator: TA1535, Metabolic Activation: HAMSTER, LIVER, S-9, AROCLOR 1254, Method: PREINCUBATION) “inactive; negative”; under setting [6], “inactive; negative”; (Test System: AMES SALMONELLA TYPHIMURIUM, Strain/Indicator: TA1535, Metabolic Activation: RAT, LIVER, S-9, AROCLOR 1254, Method: PREINCUBATION) “inactive; negative”; (Test System: AMES SALMONELLA TYPHIMURIUM, Strain/Indicator: TA1537, Metabolic Activation: HAMSTER, LIVER, S-9, AROCLOR 1254, Method: PREINCUBATION) “inactive; negative”; (Test System: AMES SALMONELLA TYPHIMURIUM, Strain/Indicator: TA1537, Metabolic Activation: NONE, Method: PREINCUBATION) “inactive; negative”; (Test System: AMES SALMONELLA TYPHIMURIUM, Strain/Indicator: TA1537, Metabolic Activation: RAT, LIVER, S-9, AROCLOR 1254, Method: PREINCUBATION) “inactive; negative”.

For the compound `O=c1c(=O)c2c([N+](=O)[O-])ccc3ccc4cccc1c4c32`, the mutagenic call is, setting by setting: under setting [2], “active; positive”; under setting [7], “active; positive”; under setting [5], “active; positive”; under setting [8], “active; positive”.

`N#C[Se]Cc1ccccc1`: the mutagenic call is “inactive; negative” (Test System: AMES SALMONELLA TYPHIMURIUM, Strain/Indicator: TA97A, Metabolic Activation: NONE, Method: STANDARD PLATE) and “active; positive” under setting [1].
